According to PubChem BioAssay (NCI):
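96-well plates; 48 h exposure; 5 concentrations. Endpoints by linear interpolation between flanking doses. Not reached: highest tested concentration assigned. Definition used: TGI = concentration required for complete inhibition of growth.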

Columns and labels:
Experiment in all cases: NCI tumour cell line growth inhibition, 48 h
[1] = system: UACC-257 melanoma
[2] = system: UACC-62 melanoma
[3] = system: TK-10 renal
[4] = system: RPMI-8226 leukemia
[5] = system: MOLT-4 leukemia
[6] = system: CCRF-CEM leukemia
[7] = system: SK-OV-3 ovarian
[8] = system: RXF 393 renal
[9] = system: CAKI-1 renal
[10] = system: SK-MEL-5 melanoma
[11] = system: OVCAR-4 ovarian
[12] = system: OVCAR-3 ovarian
[13] = system: HL-60(TB) leukemia
[14] = system: M19-MEL melanoma
[15] = system: U251 CNS
[16] = system: K-562 leukemia
[17] = system: SNB-78 CNS
[18] = system: DMS 114 small cell lung
[19] = system: HOP-18 NSCLC
[20] = system: COLO 205 colon
[21] = system: NCI-H226 lung
[22] = system: A549 NSCLC
[23] = system: HCT-15 colon
[24] = system: DLD-1 colon
[25] = system: LOX IMVI melanoma
[26] = system: HOP-92 NSCLC
[27] = system: SN12C renal
[28] = system: SK-MEL-2 melanoma
[29] = system: NCI-H460 lung
[30] = system: SF-295 CNS
[31] = system: EKVX NSCLC
[32] = system: 786-0 renal
[33] = system: HOP-62 NSCLC
[34] = system: RXF-631 renal
[35] = system: SW-620 colon
[36] = system: SNB-75 CNS
[37] = system: XF 498 CNS
[38] = system: HCT-116 colon
[39] = system: KM12 colon
[40] = system: OVCAR-8 ovarian
[41] = system: HT29 colon
[42] = system: KM20L2 colon
[43] = system: IGROV1 ovarian
[44] = system: MALME-3M melanoma
[45] = system: SK-MEL-28 melanoma
[46] = system: UO-31 renal
[47] = system: OVCAR-5 ovarian
[48] = system: DMS 273 small cell lung
[49] = system: LXFL 529 NSCLC
[50] = system: ACHN renal
[51] = system: M14 melanoma
[52] = system: HCC-2998 colon
[53] = system: SNB-19 CNS
[54] = system: NCI-H522 lung
[55] = system: SF-268 CNS
[56] = system: A498 renal
[57] = system: SR leukemia
[58] = system: SF-539 CNS
[59] = system: NCI-H23 lung

CC1O[C@@H]2CCCCC(=O)[C@]2(C)[C@H]1C (stereo partly specified)
TGI [1]: > 100 µM | TGI [2]: > 100 µM | TGI [3]: > 100 µM | TGI [4]: > 100 µM | TGI [5]: > 100 µM | TGI [6]: > 100 µM | TGI [7]: > 100 µM | TGI [8]: > 100 µM | TGI [9]: > 100 µM | TGI [10]: > 100 µM | TGI [11]: > 100 µM | TGI [12]: > 100 µM | TGI [13]: > 100 µM | TGI [14]: > 100 µM | TGI [15]: > 100 µM | TGI [16]: > 100 µM | TGI [17]: > 100 µM | TGI [18]: > 100 µM | TGI [19]: > 100 µM | TGI [20]: > 100 µM | TGI [21]: > 100 µM | TGI [22]: > 100 µM | TGI [23]: > 100 µM | TGI [24]: > 100 µM | TGI [25]: > 100 µM | TGI [26]: > 100 µM | TGI [27]: > 100 µM | TGI [28]: > 100 µM | TGI [29]: > 100 µM | TGI [30]: > 100 µM | TGI [31]: > 100 µM | TGI [32]: > 100 µM | TGI [33]: > 100 µM | TGI [34]: > 100 µM | TGI [35]: > 100 µM | TGI [36]: > 100 µM | TGI [37]: > 100 µM | TGI [38]: > 100 µM | TGI [39]: > 100 µM | TGI [40]: > 100 µM | TGI [41]: > 100 µM | TGI [42]: > 100 µM | TGI [43]: > 100 µM | TGI [44]: > 100 µM | TGI [45]: > 100 µM | TGI [46]: > 100 µM | TGI [47]: > 100 µM | TGI [48]: > 100 µM | TGI [49]: > 100 µM | TGI [50]: > 100 µM | TGI [51]: > 100 µM | TGI [52]: > 100 µM | TGI [53]: > 100 µM

O=Cc1cc2sc(C=O)cc2s1
TGI [1]: > 100 µM | TGI [2]: > 100 µM | TGI [3]: > 100 µM | TGI [4]: > 100 µM | TGI [5]: > 100 µM | TGI [54]: > 100 µM | TGI [6]: > 100 µM | TGI [7]: > 100 µM | TGI [8]: > 100 µM | TGI [55]: > 100 µM | TGI [56]: 34.3 µM | TGI [57]: > 100 µM | TGI [9]: > 100 µM | TGI [10]: > 100 µM | TGI [11]: > 100 µM | TGI [12]: > 100 µM | TGI [13]: > 100 µM | TGI [58]: > 100 µM | TGI [14]: > 100 µM | TGI [15]: > 100 µM | TGI [16]: > 100 µM | TGI [17]: > 100 µM | TGI [18]: > 100 µM | TGI [20]: > 100 µM | TGI [21]: 59.2 µM | TGI [22]: > 100 µM | TGI [23]: > 100 µM | TGI [24]: > 100 µM | TGI [25]: > 100 µM | TGI [26]: > 100 µM | TGI [27]: > 100 µM | TGI [29]: > 100 µM | TGI [30]: > 100 µM | TGI [31]: > 100 µM | TGI [32]: > 100 µM | TGI [33]: > 100 µM | TGI [34]: > 100 µM | TGI [35]: > 100 µM | TGI [36]: > 100 µM | TGI [37]: > 100 µM | TGI [38]: > 100 µM | TGI [39]: > 100 µM | TGI [40]: > 100 µM | TGI [41]: > 100 µM | TGI [42]: > 100 µM | TGI [43]: > 100 µM | TGI [59]: > 100 µM | TGI [44]: > 100 µM | TGI [46]: > 100 µM | TGI [47]: > 100 µM | TGI [48]: > 100 µM | TGI [49]: > 100 µM | TGI [51]: > 100 µM | TGI [52]: > 100 µM | TGI [53]: > 100 µM

CC(C)C(N=C1CC2CCC1(C(=O)Nc1ccccc1O)C2(C)C)c1ccccc1 (stereo unspecified)
TGI [1]: > 10 µM | TGI [2]: > 10 µM | TGI [3]: > 10 µM | TGI [4]: > 10 µM | TGI [5]: > 10 µM | TGI [54]: > 10 µM | TGI [6]: > 10 µM | TGI [7]: > 10 µM | TGI [55]: > 10 µM | TGI [56]: > 10 µM | TGI [57]: > 10 µM | TGI [9]: > 10 µM | TGI [10]: > 10 µM | TGI [11]: > 10 µM | TGI [12]: > 10 µM | TGI [13]: > 10 µM | TGI [58]: > 10 µM | TGI [14]: > 10 µM | TGI [15]: > 10 µM | TGI [16]: > 10 µM | TGI [17]: > 10 µM | TGI [18]: > 10 µM | TGI [19]: > 10 µM | TGI [20]: > 10 µM | TGI [21]: > 10 µM | TGI [22]: > 10 µM | TGI [23]: > 10 µM | TGI [24]: > 10 µM | TGI [25]: > 10 µM | TGI [26]: > 10 µM | TGI [27]: > 10 µM | TGI [28]: > 10 µM | TGI [29]: > 10 µM | TGI [30]: > 10 µM | TGI [31]: > 10 µM | TGI [32]: > 10 µM | TGI [33]: > 10 µM | TGI [34]: > 10 µM | TGI [35]: > 10 µM | TGI [36]: > 10 µM | TGI [37]: > 10 µM | TGI [38]: > 10 µM | TGI [39]: > 10 µM | TGI [40]: > 10 µM | TGI [41]: > 10 µM | TGI [42]: > 10 µM | TGI [43]: > 10 µM | TGI [59]: > 10 µM | TGI [44]: > 10 µM | TGI [45]: > 10 µM | TGI [46]: > 10 µM | TGI [47]: > 10 µM | TGI [48]: > 10 µM | TGI [49]: > 10 µM | TGI [50]: > 10 µM | TGI [51]: > 10 µM | TGI [52]: > 10 µM | TGI [53]: > 10 µM
